Measurements published in patent US4263427A, “Monensin urethane derivatives” (priority 1979, dated 1981).
≈ marks a conversion by molar mass, not a printed value. Like-named read-outs stand apart in the source and are kept apart here.

Legend:
rumen fluid = conditions: control 100
Bacillus sp. TA 27860 = assay: Minimum Inhibitory Concentration, agarwell diffusion assay (Table 6); format: cell-based; conditions: for MIC: Bacillus, SP.TA27860, Bacillus sp. TA 27860, read-out: Minimum Inhibitory Concentration
Source text: (§1) (a) Lowest twofold dilution giving zone of inhibition in the agarwell
(§2) (b) NRRL collection number, all the rest ate ATCC numbers.

MycoBacterium phiel 355 = assay: as above; format: cell-based; conditions: Mycobacterium, 355, read-out: Minimum Inhibitory Concentration, MycoBacterium phiel 355
Source text: as §1, §2

[1] = system: Streptococcus cellulosac 3313; assay: as above; format: cell-based; conditions: for MIC: Streptococcus, 3313, read-out: Minimum Inhibitory Concentration, Streptococcus cellulosac 3313
Source text: as §1, §2

[2] = system: Streptococcus faecium 8043; assay: as above; format: cell-based; conditions: for MIC: Enterococcus faecium, 8043, Streptococcus faecium 8043, read-out: Minimum Inhibitory Concentration
Source text: as §1, §2

Bacillus subtilis 583 = assay: as above; format: cell-based; conditions: Bacillus subtilis, 583, Bacillus subtilis 583 (NRRL), read-out: Minimum Inhibitory Concentration
Source text: as §1, §2

Bacillus megaterium 8CU = assay: as above; format: cell-based; conditions: for MIC: Priestia megaterium, 8CU, read-out: Minimum Inhibitory Concentration, Bacillus megaterium 8CU
Source text: as §1, §2

Sarcina lutca 9341 = assay: as above; format: cell-based; conditions: Sarcina, 9341, read-out: Minimum Inhibitory Concentration, Sarcina lutca 9341
Source text: as §1, §2

Bacillus sp. E 27859 = assay: as above; format: cell-based; conditions: for MIC: Bacillus, SP.E27859, Bacillus sp. E 27859, read-out: Minimum Inhibitory Concentration
Source text: as §1, §2

Staph. aureus 6538 = assay: as above; format: cell-based; conditions: for MIC: Staphylococcus aureus, 6538, read-out: Minimum Inhibitory Concentration, Staph. aureus 6538
Source text: as §1, §2

[3] = Oral antihypertensive activity: blood pressure and heart rate (Table 9); format: in vivo; conditions: oral dose 10 mg/kg
Source text: Compounds of formula I, and their pharmaceutically acceptable salts are orally active as antihypertensive agents.

Treponema hyodysenteriae = assay: Activity against Treponema hyodysenteriae (MIC, blood agar plates); format: cell-based; conditions: 42° C., anaerobic
Source text: Testing for activity against Treponema hyodysenteriae, a cause of swine dysentery consisted of inoculation of blood agar plates containing a series of two or fourfold dilutions of the monensin urethane derivatives with tenfold dilutions of the T. hyodysenteriae strain.

[4] = system: Paceilomyces variotl 25820; assay: Minimum Inhibitory Concentration, agarwell diffusion assay (Table 6); format: cell-based; conditions: for MIC: read-out: Minimum Inhibitory Concentration, Paceilomyces variotl 25820
Source text: as §1, §2

[5] = Brachyspira hyodysenteriae, 48 h

Row | Molecule | Rate of Gas Production, Percent Production of Control Fermentations (rumen fluid; 50 ppm) [%] | Total VFA, Percent Production of Control Fermentations (rumen fluid; 50 ppm) [%] | MIC (Bacillus sp. TA 27860) [µg/mL] | MIC (MycoBacterium phiel 355) [µg/mL] | MIC [1] [µg/mL] | MIC [2] [µg/mL] | MIC (Bacillus subtilis 583) [µg/mL] | MIC (Bacillus megaterium 8CU) [µg/mL] | MIC (Sarcina lutca 9341) [µg/mL] | MIC (Bacillus sp. E 27859) [µg/mL] | MIC (Staph. aureus 6538) [µg/mL] | also measured
1 | CC[C@@]1([C@@H]2O[C@@H]([C@H]3O[C@@](O)(CO)[C@H](C)C[C@@H]3C)C[C@@H]2C)CC[C@H]([C@]2(C)CC[C@]3(C[C@H](O)[C@@H](C)[C@@H]([C@@H](C)[C@@H](OC)[C@H](C)C(=O)O)O3)O2)O1 [Monensin] | 89 | 105.3 |  |  |  |  |  |  |  |  |  | Rate of Gas Production, Percent Production of Control Fermentations (rumen fluid; 10 ppm): 85%; Total VFA, Percent Production of Control Fermentations (rumen fluid; 10 ppm): 110.7%
2 | COC(C(C)C(=O)O)C(C)C1OC2(CCC(C)(C3CCC(C)(C4OC(C5OC(O)(COC(=O)NCCc6ccccc6)C(C)CC5C)CC4C)O3)O2)CC(O)C1C (stereo not shown) [Monensin B, 2-phenethylurethane] | 92 | 149.1 | 3.1 (≈ 3.86 µM) | 25 (≈ 31.1 µM) | 12.5 (≈ 15.5 µM) | 0.8 (≈ 0.995 µM) | 3.1 (≈ 3.86 µM) | 3.1 (≈ 3.86 µM) | 3.1 (≈ 3.86 µM) | 1.6 (≈ 1.99 µM) | 6.3 (≈ 7.84 µM) | Day of Maximum Change, Blood Pressure [3]: 2 days; Day of Maximum Change, Heart Rate [3]: 3 days; Maximum Change (%), Blood Pressure [3]: 13%; Maximum Change (%), Heart Rate [3]: 14%; Mean Blood Pressure at time of maximum effect ([3]; at time of maximum effect): 189 mm Hg; Mean Blood Pressure before treatment ([3]; before treatment): 216 mm Hg; Rate of Gas Production, Percent Production of Control Fermentations (rumen fluid; 10 ppm): 93%; Total VFA, Percent Production of Control Fermentations (rumen fluid; 10 ppm): 157.8%; MIC (Treponema hyodysenteriae; 48 hours, 2-phenethylurethane (natural product)): 0.4-2.0 meg/ml; MIC (Treponema hyodysenteriae; 48 hours, 2-phenethylurethane (synthetic product)): 2.0 meg/ml
3 | CCC1(C2OC(C3OC(O)(COC(=O)NC4CC4c4ccccc4)C(C)CC3C)CC2C)CCC(C2(C)CCC3(CC(O)C(C)C(C(C)C(OC)C(C)C(=O)O)O3)O2)O1 (stereo not shown) [Monensin A, 2-(phenyl)-cyclopropyl urethane] |  |  | 0.4 (≈ 0.482 µM) | 3.1 (≈ 3.73 µM) | 12.5 (≈ 15.1 µM) | 0.2 (≈ 0.241 µM) | 0.8 (≈ 0.964 µM) | 0.8 (≈ 0.964 µM) | 0.8 (≈ 0.964 µM) | 0.4 (≈ 0.482 µM) | 3.1 (≈ 3.73 µM) | MIC [4]: 6.3 µg/mL (≈ 7.59 µM); MIC (Treponema hyodysenteriae; [5]): 0.4 µg/mL (≈ 0.482 µM)
4 | COC(C(C)C(=O)O)C(C)C1OC2(CCC(C)(C3CCC(C)(C4OC(C5OC(O)(COC(=O)NC(C)c6ccccc6)C(C)CC5C)CC4C)O3)O2)CC(O)C1C [Monensin B, (R)-1-phenethylurethane] | 103.3 | 82.7 |  | 12.5 (≈ 15.5 µM) |  |  | 1.6 (≈ 1.99 µM) |  | 3.1 (≈ 3.86 µM) |  |  | Minimum Inhibitory Concentration (Bacillus sp. TA 27860; Bacillus sp. TA 27860, listed as Monensin B,(R)-1-phenethylurethane): 1.6 meg/ml; Minimum Inhibitory Concentration ([4]; Paceilomyces variotl 25820, listed as Monensin B,(R)-1-phenethylurethane): 3.1 meg/ml; Minimum Inhibitory Concentration ([1]; Streptococcus cellulosac 3313, listed as Monensin B,(R)-1-phenethylurethane): 3.1 meg/ml; Minimum Inhibitory Concentration ([2]; Streptococcus faecium 8043, listed as Monensin B,(R)-1-phenethylurethane): 0.8 meg/ml; Minimum Inhibitory Concentration (Bacillus megaterium 8CU; Bacillus megaterium 8CU, listed as Monensin B,(R)-1-phenethylurethane): 1.6 meg/ml; Minimum Inhibitory Concentration (Bacillus sp. E 27859; Bacillus sp. E 27859, listed as Monensin B,(R)-1-phenethylurethane): 0.4 meg/ml; Minimum Inhibitory Concentration (Staph. aureus 6538; Staph. aureus 6538, listed as Monensin B,(R)-1-phenethylurethane): 6.3 meg/ml; MIC (Treponema hyodysenteriae; [5]): 0.4 µg/mL (≈ 0.497 µM)
5 | CCC1(C2OC(C3OC(O)(COC(=O)NC)C(C)CC3C)CC2C)CCC(C2(C)CCC3(CC(O)C(C)C(C(C)C(OC)C(C)C(=O)O)O3)O2)O1 (stereo not shown) [Monensin A, n-methylurethane] |  |  | 12.5 (≈ 17.2 µM) |  |  | 1.6 (≈ 2.2 µM) | 1.6 (≈ 2.2 µM) | 6.3 (≈ 8.65 µM) | 25 (≈ 34.3 µM) | 6.3 (≈ 8.65 µM) | 25 (≈ 34.3 µM) | 
6 | Monensin A, 2-phenylurethane |  |  |  |  |  |  |  |  |  |  |  | MIC (Treponema hyodysenteriae; 48 hours): 0.4 meg/ml
7 | CCC1(C2OC(C3OC(O)(COC(=O)Nc4ccc(Oc5ccccc5)cc4)C(C)CC3C)CC2C)CCC(C2(C)CCC3(CC(O)C(C)C(C(C)C(OC)C(C)C(=O)O)O3)O2)O1 (stereo not shown) [Monensin A, 4-phenoxyphenylurethane] |  |  | 0.2 (≈ 0.227 µM) | 1.6 (≈ 1.81 µM) | 0.8 (≈ 0.907 µM) | 0.1 (≈ 0.113 µM) | 0.4 (≈ 0.453 µM) | 0.4 (≈ 0.453 µM) | 0.4 (≈ 0.453 µM) | 0.4 (≈ 0.453 µM) | 0.4 (≈ 0.453 µM) | MIC [4]: 0.8 µg/mL (≈ 0.907 µM)
